In patent publication US20200347043A1, “MODULATORS OF THE INTEGRATED STRESS PATHWAY” (Calico Life Sciences LLC, priority 2019, published 2020):

Test system: HEK293T cells carrying the ATF4 luciferase reporter
Experiment: ATF4-Luc assay (in vitro model of VWMD)
Assay type: cell-based, human
Settings: Homo sapiens, HEK-293T, 1 μg/mL tunicamycin, 7 hours, One Glo luminescence
How it was run: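 Tunicamycin (1 μg/mL) stress with co-added compound for 7 hours in HEK293T cells stably carrying an ATF4 5′-UTR–luciferase reporter. EC50 values come from the luminescent signal (One Glo).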

Compound | EC50
O=C(N[C@@H]1CC[C@@H](c2ncc([C@H]3C[C@@H](OC(F)(F)F)C3)o2)OC1)[C@H]1C[C@@H](O)c2cc(Cl)ccc2O1 [Compound 292, (2R,4R)-6-chloro-4-hydroxy-N-[(3R,6S)-6-{5-[3-(trifluoromethoxy)cyclobutyl]-1,3-oxazol-2-yl}oxan-3-yl]-3,4-dihydro-2H-1-benzopyran-2-carboxamide] | < 10 nM
O=C(NC12CC(n3cnc(-c4ccc(F)c(F)c4)c3)(C1)C2)[C@H]1C[C@@H](O)c2cc(Cl)ccc2O1 [Compound 181, (2R,4R)-6-chloro-N-{3-[4-(3,4-difluorophenyl)-1H-imidazol-1-yl]bicyclo[1.1.1]pentan-1-yl}-4-hydroxy-3,4-dihydro-2H-1-benzopyran-2-carboxamide] | < 10 nM
O=C(CO[C@H]1C[C@@H](OC(F)(F)F)C1)NC12CC(NC(=O)[C@H]3C[C@@H](O)c4cc(Cl)ccc4O3)(C1)C2 [Compound 164, (2R,4R)-6-chloro-4-hydroxy-N-[3-(2-{[cis-3-(trifluoromethoxy)cyclobutyl]oxy}acetamido)bicyclo[1.1.1]pentan-1-yl]-3,4-dihydro-2H-1-benzopyran-2-carboxamide] | < 10 nM
O=C(NC12CC(C(=O)NCc3ccc(C(F)(F)F)cn3)(C1)C2)[C@H]1C[C@@H](O)c2cc(Cl)ccc2O1 [Compound 119, (2R,4R)-6-chloro-4-hydroxy-N-[3-({[5-(trifluoromethyl)pyridin-2-yl]methyl}carbamoyl)bicyclo[1.1.1]pentan-1-yl]-3,4-dihydro-2H-1-benzopyran-2-carboxamide] | 10 to 50 nM
O=C(CO[C@H]1C[C@@H](OC(F)(F)F)C1)NC12CCC(NC(=O)[C@H]3CC(=O)c4cc(Cl)ccc4O3)(CC1)C[C@@H]2O [Compound 115, (2R)-6-chloro-N-[(3S)-3-hydroxy-4-(2-{[(1s,3R)-3-(trifluoromethoxy)cyclobutyl]oxy}acetamido)bicyclo[2.2.2]octan-1-yl]-4-oxo-3,4-dihydro-2H-1-benzopyran-2-carboxamide] | < 10 nM
O=C(NC12CC(c3nc([C@H]4C[C@@H](OC(F)(F)F)C4)no3)(C1)C2)[C@@H]1C[C@H](O)c2cc(Cl)ccc2O1 [Compound 218, (2S,4S)-6-chloro-4-hydroxy-N-(3-{3-[cis-3-(trifluoromethoxy)cyclobutyl]-1,2,4-oxadiazol-5-yl}bicyclo[1.1.1]pentan-1-yl)-3,4-dihydro-2H-1-benzopyran-2-carboxamide] | 500 to 2000 nM
O=C(NC12CC(n3cc(-c4ccc(OC(F)(F)F)cn4)cn3)(C1)C2)[C@H]1C[C@@H](O)c2cc(Cl)ccc2O1 [Compound 308, (2R,4R)-6-chloro-4-hydroxy-N-(3-{4-[5-(trifluoromethoxy)pyridin-2-yl]-1H-pyrazol-1-yl}bicyclo[1.1.1]pentan-1-yl)-3,4-dihydro-2H-1-benzopyran-2-carboxamide] | < 10 nM
O=C(NC12CC(c3nc(COc4ccc(Cl)c(F)c4)no3)(C1)C2)[C@H]1C[C@@H](O)c2cc(Cl)ccc2O1 [Compound 156, (2R,4R)-6-chloro-N-(3-{3-[(4-chloro-3-fluorophenoxy)methyl]-1,2,4-oxadiazol-5-yl}bicyclo[1.1.1]pentan-1-yl)-4-hydroxy-3,4-dihydro-2H-1-benzopyran-2-carboxamide] | < 10 nM
O=C(NC12CC(C(=O)NCc3nc4cc(F)c(F)cc4[nH]3)(C1)C2)[C@H]1C[C@@H](O)c2cc(Cl)ccc2O1 [Compound 127, (2R,4R)-6-chloro-N-(3-{[(5,6-difluoro-1H-benzimidazol-2-yl)methyl]carbamoyl}bicyclo[1.1.1]pentan-1-yl)-4-hydroxy-3,4-dihydro-2H-1-benzopyran-2-carboxamide] | 10 to 50 nM
O=C(NC12CC(c3cc([C@H]4C[C@@H](OC(F)(F)F)C4)no3)(C1)C2)[C@H]1C[C@@H](O)c2cc(Cl)ccc2O1 [Compound 266, (2R,4R)-6-chloro-4-hydroxy-N-(3-{3-[cis-3-(trifluoromethoxy)cyclobutyl]-1,2-oxazol-5-yl}bicyclo[1.1.1]pentan-1-yl)-3,4-dihydro-2H-1-benzopyran-2-carboxamide] | 10 to 50 nM
O=C(NC12CC(c3csc([C@H]4C[C@@H](OC(F)(F)F)C4)n3)(C1)C2)[C@H]1C[C@@H](O)c2cc(Cl)ccc2O1 [Compound 280, (2R,4R)-6-chloro-4-hydroxy-N-(3-{2-[cis-3-(trifluoromethoxy)cyclobutyl]-1,3-thiazol-4-yl}bicyclo[1.1.1]pentan-1-yl)-3,4-dihydro-2H-1-benzopyran-2-carboxamide] | 50 to 250 nM
O=C(CO[C@H]1C[C@@H](OC(F)(F)F)C1)NC12CCC(NC(=O)[C@H]3CC(=O)c4cc(F)c(F)cc4O3)(CC1)CC2 [Compound 189, (2R)-6,7-difluoro-4-oxo-N-[4-(2-{[cis-3-(trifluoromethoxy)cyclobutyl]oxy}acetamido)bicyclo[2.2.2]octan-1-yl]-3,4-dihydro-2H-1-benzopyran-2-carboxamide] | 10 to 50 nM
O=C1CC(C(=O)NC23CCC(c4nnc([C@H]5C[C@@H](OC(F)(F)F)C5)o4)(CC2)CC3)Oc2ccc(Cl)cc21 (stereo partly drawn) [Compound 167, 6-chloro-4-oxo-N-(4-{5-[cis-3-(trifluoromethoxy)cyclobutyl]-1,3,4-oxadiazol-2-yl}bicyclo[2.2.2]octan-1-yl)-3,4-dihydro-2H-1-benzopyran-2-carboxamide] | 10 to 50 nM
O=C1C[C@H](C(=O)NC23CC(N4CCC(c5ccc(Cl)cc5)C4=O)(C2)C3)Oc2ccc(Cl)cc21 (stereo partly drawn) [Compound 224, (2R)-6-chloro-N-{3-[3-(4-chlorophenyl)-2-oxopyrrolidin-1-yl]bicyclo[1.1.1]pentan-1-yl}-4-oxo-3,4-dihydro-2H-1-benzopyran-2-carboxamide] | > 2000 nM
O=C1C[C@H](C(=O)NC23CC(C(=O)NCc4ccc(C(F)(F)F)cn4)(C2)C3)Oc2ccc(Cl)cc21 [Compound 132, (2R)-6-chloro-4-oxo-N-[3-({[5-(trifluoromethyl)pyridin-2-yl]methyl}carbamoyl)bicyclo[1.1.1]pentan-1-yl]-3,4-dihydro-2H-1-benzopyran-2-carboxamide] | 50 to 250 nM
O=C(NC12CCC(NC(=O)[C@H]3C[C@@H](OC(F)(F)F)C3)(CC1)[C@@H](O)C2)c1cc(=O)c2cc(Cl)ccc2o1 [Compound 146, 6-chloro-N-[(3S)-3-hydroxy-4-{[(1s,3R)-3-(trifluoromethoxy)cyclobutane-1-carbonyl]amino}bicyclo[2.2.2]octan-1-yl]-4-oxo-4H-1-benzopyran-2-carboxamide] | 250 to 500 nM
O=C(NC12CC(c3ccn([C@H]4C[C@@H](OC(F)(F)F)C4)n3)(C1)C2)[C@H]1C[C@@H](O)c2cc(Cl)ccc2O1 [Compound 298, (2R,4R)-6-chloro-4-hydroxy-N-(3-{1-[cis-3-(trifluoromethoxy)cyclobutyl]-1H-pyrazol-3-yl}bicyclo[1.1.1]pentan-1-yl)-3,4-dihydro-2H-1-benzopyran-2-carboxamide] | 50 to 250 nM
O=C(N[C@H]1CC[C@H](N2CCN(c3ccc(C(F)(F)F)nc3)C2=O)CC1)[C@H]1C[C@@H](O)c2cc(Cl)ccc2O1 [Compound 310] | 50 to 250 nM
O=C(NC12CCC(c3nnc([C@H]4C[C@@H](OC(F)(F)F)C4)o3)(CC1)CC2)[C@@H]1C[C@H](O)c2cc(Cl)ccc2O1 [Compound 204, (2S,4S)-6-chloro-4-hydroxy-N-(4-{5-[cis-3-(trifluoromethoxy)cyclobutyl]-1,3,4-oxadiazol-2-yl}bicyclo[2.2.2]octan-1-yl)-3,4-dihydro-2H-1-benzopyran-2-carboxamide] | 10 to 50 nM
O=C(CO[C@H]1C[C@@H](OC(F)(F)F)C1)N[C@H]1CC[C@H](NC(=O)[C@H]2C[C@@H](O)c3cc(Cl)ccc3O2)CC1 [Compound 214, (2R,4R)-6-chloro-4-hydroxy-N-[trans-4-(2-{[cis-3-(trifluoromethoxy)cyclobutyl]oxy}acetamido)cyclohexyl]-3,4-dihydro-2H-1-benzopyran-2-carboxamide] | 10 to 50 nM
O=C(CO[C@H]1C[C@@H](OC(F)(F)F)C1)NC12CCC(NC(=O)[C@@H]3C[C@@H](O)c4cc(Cl)ccc4O3)(CC1)CC2 [Compound 239, (2S,4R)-6-chloro-4-hydroxy-N-[4-(2-{[cis-3-(trifluoromethoxy)cyclobutyl]oxy}acetamido)bicyclo[2.2.2]octan-1-yl]-3,4-dihydro-2H-1-benzopyran-2-carboxamide] | 10 to 50 nM
CN(C(=O)COc1ccc(Cl)c(F)c1)[C@H]1CC[C@H](NC(=O)[C@H]2C[C@@H](O)c3cc(Cl)ccc3O2)CC1 [Compound 102, (2R,4R)-6-chloro-N-[(1r,4R)-4-{[(4-chloro-3-fluorophenoxy)acetyl](methyl)amino}cyclohexyl]-4-hydroxy-3,4-dihydro-2H-1-benzopyran-2-carboxamide] | 10 to 50 nM
O=C1CC(C(=O)N[C@H]2CC[C@H](C(=O)NCc3nc4ccc(Cl)cc4[nH]3)CC2)Oc2ccc(Cl)cc21 (stereo partly shown) [Compound 138, 6-chloro-N-[(1r,4r)-4-{[(6-chloro-1H-benzimidazol-2-yl)methyl]carbamoyl}cyclohexyl]-4-oxo-3,4-dihydro-2H-1-benzopyran-2-carboxamide] | 50 to 250 nM
O=C(NC12CC(c3cc(-c4ccc(Cl)c(F)c4)no3)(C1)C2)[C@@H]1C[C@@H](O)c2cc(Cl)ccc2O1 [Compound 249, (2S,4R)-6-chloro-N-{3-[3-(4-chloro-3-fluorophenyl)-1,2-oxazol-5-yl]bicyclo[11.11]pentan-1-yl}-4-hydroxy-3,4-dihydro-2H-1-benzopyran-2-carboxamide] | 50 to 250 nM
O=C(N[C@H]1CC[C@H](N2CCN(c3cnc(C(F)F)cn3)C2=O)CC1)[C@H]1C[C@@H](O)c2cc(Cl)ccc2O1 [Compound 303, (2R,4R)-6-chloro-N-[trans-4-{3-[5-(difluoromethyl)pyrazin-2-yl]-2-oxoimidazolidin-1-yl}cyclohexyl]-4-hydroxy-3,4-dihydro-2H-1-benzopyran-2-carboxamide] | 50 to 250 nM
